Source: publication PMC12446476 (Nature Communications, 2025)
≈ marks a conversion by molar mass, not a printed value. Where “and” joins values, the source holds several entries; their conditions need not be identical. Equal values may be shown once. Read-outs that look alike come from different tables or passages of the source.

Columns and labels:
[1] = tested on: Salmonella typhimurium (TA1535, TA1537, TA98 and TA100); format: cell-based
Procedure: Ames assays were performed using four strains of Salmonella typhimurium (TA1535, TA1537, TA98 and TA100) and a single strain of E. coli (WRP2 uvrA) in the presence and absence of S9 tissue homogenate. Dose levels (µg/plate) up to 4000 were assessed for WP2 uvrA and TA98, 500 for TA1535, 250 for TA1537 and 62.5 for TA100.

[2] = tested on: human lymphocytes; test: In vitro micronucleus test; format: cell-based
[3] = tested on: human hepatocytes
Procedure: Pooled human hepatocytes from 10-donor males (BioIVT, West Sussex, UK; MX008001) or 10-donor females (BioIVT, West Sussex, UK; FX008001) were incubated with test compounds (or vehicle) and the compound concentration was measured over time. Samples were incubated at 37 °C and concentrations were assessed after 0, 20-, 40-, 60- and 240-min. Verapamil was included as a control.
The instrument operated in positive ionisation mode (ESI + ) over a m/z range of 80–1000 (n = 1 measure per sample). Data were extracted from chromatograms using calculated monoisotopic accurate masses for protonated molecular ions within 5 ppm windows.

[4] = tested on: N. gonorrhoeae; test: MIC determination, broth microdilution (baseline for liquid-based assays); format: cell-based, Neisseria gonorrhoeae; settings: for MIC: Neisseria gonorrhoeae
Description: The 2024 WHO N. gonorrhoeae reference strains were used for quality control. Only whole MIC doubling dilutions are reported. Clinical breakpoints or the epidemiological cutoff (ECOFF, to indicate azithromycin resistance) from EUCAST (v14.0, https://www.eucast.org/clinical_breakpoints) were used to classify isolates as antimicrobial susceptible or resistant. […] Two times the standard inoculum defined by CLSI was used to establish consistent growth in untreated control samples for some strains. In vitro time-kill assays were performed according to CLSI guidelines[65] using Columbia Broth (BD Difco) supplemented with 1% IsoVitaleX Enrichment (BD). Viable bacterial counts were generated by plating 10-fold serially diluted samples on GC agar plates containing 1% IsoVitaleX Enrichment (BD).

[5] = TA98, without S9, 62.5 µg/plate
[6] = TA100, without S9, 15.6 µg/plate
[7] = TA100, without S9, 31.3 µg/plate
[8] = TA1535, without S9, 10 µg/plate
[9] = TA1535, without S9, 15.6 µg/plate
[10] = TA1535, without S9, 31.3 µg/plate
[11] = TA1535, without S9, 62.5 µg/plate
[12] = TA1535, without S9, 250 µg/plate
[13] = TA1537, without S9, 10 µg/plate
[14] = TA1537, without S9, 15.6 µg/plate
[15] = TA1537, without S9, 31.3 µg/plate
[16] = TA1537, without S9, 62.5 µg/plate

Q: Which results are given for `Cc1c(CN(C)C(=O)/C=C/c2cnc3c(c2)N[C@H](C)[C@H](OP(=O)([O-])[O-])C(=O)N3)oc2ccccc12.[Na+].[Na+]` [Debio 1453 P]?
A: Ames bacterial mutation assessment, Mean ([1]; TA98, with S9, 62.5 µg/plate): 34; Colony count ([1]; TA98, with S9, 62.5 µg/plate): 35 and 36 and 30; Ames bacterial mutation assessment, Mean ([1]; TA98, with S9, 250 µg/plate): 26; Colony count ([1]; TA98, with S9, 250 µg/plate): 28 and 26 and 23; Ames bacterial mutation assessment, Mean ([1]; TA98, with S9, 500 µg/plate): 12; Colony count ([1]; TA98, with S9, 500 µg/plate): 14 and 12 and 11; Ames bacterial mutation assessment, Mean [1, 5]: 32; Colony count [1, 5]: 36 and 29 and 32; Ames bacterial mutation assessment, Mean ([1]; TA98, without S9, 250 µg/plate): 22; Colony count ([1]; TA98, without S9, 250 µg/plate): 24 and 21 and 20; Ames bacterial mutation assessment, Mean ([1]; TA98, without S9, 500 µg/plate): 12; Colony count ([1]; TA98, without S9, 500 µg/plate): 12 and 13 and 10; Ames bacterial mutation assessment, Mean ([1]; TA100, with S9, 5 µg/plate): 141; Colony count ([1]; TA100, with S9, 5 µg/plate): 143 and 140 and 141; Ames bacterial mutation assessment, Mean ([1]; TA100, with S9, 10 µg/plate): 128; Colony count ([1]; TA100, with S9, 10 µg/plate): 123 and 133 and 128; Ames bacterial mutation assessment, Mean ([1]; TA100, with S9, 15.6 µg/plate): 60; Colony count ([1]; TA100, with S9, 15.6 µg/plate): 57 and 59 and 64; Ames bacterial mutation assessment, Mean ([1]; TA100, with S9, 31.3 µg/plate): 30; Colony count ([1]; TA100, with S9, 31.3 µg/plate): 30 and 29 and 32; Ames bacterial mutation assessment, Mean ([1]; TA100, without S9, 5 µg/plate): 146; Colony count ([1]; TA100, without S9, 5 µg/plate): 146 and 143 and 149; Ames bacterial mutation assessment, Mean ([1]; TA100, without S9, 10 µg/plate): 134; Colony count ([1]; TA100, without S9, 10 µg/plate): 125 and 145 and 131; Ames bacterial mutation assessment, Mean [1, 6]: 59; Colony count [1, 6]: 66 and 54 and 58; Ames bacterial mutation assessment, Mean [1, 7]: 33; Colony count [1, 7]: 32 and 31 and 36; Ames bacterial mutation assessment, Mean ([1]; TA1535, with S9, 10 µg/plate): 18; Colony count ([1]; TA1535, with S9, 10 µg/plate): 19 and 16; Ames bacterial mutation assessment, Mean ([1]; TA1535, with S9, 15.6 µg/plate): 15; Colony count ([1]; TA1535, with S9, 15.6 µg/plate): 18 and 14; Ames bacterial mutation assessment, Mean ([1]; TA1535, with S9, 31.3 µg/plate): 16; Colony count ([1]; TA1535, with S9, 31.3 µg/plate): 17 and 16 and 14; Ames bacterial mutation assessment, Mean ([1]; TA1535, with S9, 62.5 µg/plate): 14; Colony count ([1]; TA1535, with S9, 62.5 µg/plate): 15 and 12 and 16; Ames bacterial mutation assessment, Mean ([1]; TA1535, with S9, 250 µg/plate): 6; Colony count ([1]; TA1535, with S9, 250 µg/plate): 5 and 7; Ames bacterial mutation assessment, Mean ([1]; TA1535, with S9, 500 µg/plate): 5; Colony count ([1]; TA1535, with S9, 500 µg/plate): 6 and 5; Ames bacterial mutation assessment, Mean [1, 8]: 19; Colony count [1, 8]: 18 and 21; Ames bacterial mutation assessment, Mean [1, 9]: 17; Colony count [1, 9]: 17 and 16; Ames bacterial mutation assessment, Mean [1, 10]: 13; Colony count [1, 10]: 14 and 13; Ames bacterial mutation assessment, Mean [1, 11]: 11; Colony count [1, 11]: 11 and 12; Ames bacterial mutation assessment, Mean [1, 12]: 6; Colony count [1, 12]: 6 and 8 and 4; Ames bacterial mutation assessment, Mean ([1]; TA1535, without S9, 500 µg/plate): 4; Ames bacterial mutation assessment, Mean ([1]; TA1537, with S9, 10 µg/plate): 17; Colony count ([1]; TA1537, with S9, 10 µg/plate): 16 and 19; Ames bacterial mutation assessment, Mean ([1]; TA1537, with S9, 15.6 µg/plate): 18; Colony count ([1]; TA1537, with S9, 15.6 µg/plate): 19 and 16 and 18; Ames bacterial mutation assessment, Mean ([1]; TA1537, with S9, 31.3 µg/plate): 10; Colony count ([1]; TA1537, with S9, 31.3 µg/plate): 10 and 11 and 9; Ames bacterial mutation assessment, Mean [1, 13]: 19; Colony count [1, 13]: 17 and 20 and 19; Ames bacterial mutation assessment, Mean [1, 14]: 18; Colony count [1, 14]: 19 and 20 and 16; Ames bacterial mutation assessment, Mean [1, 15]: 15; Colony count [1, 15]: 16 and 14; Ames bacterial mutation assessment, Mean [1, 16]: 7; Colony count [1, 16]: 8 and 6; Ames assay result ([1]; presence and absence of S9, highest concentrations tested): non-mutagenic; in vitro micronucleus test result [2]: negative; Intrinsic clearance (Clint) [3]: < 0.44 µL/min/million cells

Q: How did the “MIC, broth microdilution” value [4]; 6804 turn out when `Cc1c(CN(C)C(=O)/C=C/c2cnc3c(c2)N[C@H](C)[C@H](O)C(=O)N3)oc2ccccc12` [Debio 1453] was run?
A: The value was 0.06 µg/mL (≈ 0.143 µM).

Q: What about the “MIC, broth microdilution” value ([4]; AR Bank0175) of the same compound?
A: Its value is 0.06 µg/mL (≈ 0.143 µM).

Q: And the “MIC, broth microdilution” value ([4]; AR Bank0179)?
A: The value was 0.06 µg/mL (≈ 0.143 µM).

Q: What about the MIC ([4]; ATCC49226, read-out: MIC, broth microdilution, ATCC 49226) of the same compound?
A: The MIC was 0.125 µg/mL (≈ 0.297 µM).

Q: And the MIC ([4]; ATCC700825, ATCC 700825, read-out: MIC, broth microdilution)?
A: The MIC was 0.03 µg/mL (≈ 0.0713 µM).

Q: What about the MIC ([4]; read-out: MIC, broth microdilution, WHO V) of the same compound?
A: The MIC was 0.125 µg/mL (≈ 0.297 µM).

Q: And the MIC ([4]; read-out: MIC, broth microdilution, WHO X)?
A: The MIC was 0.125 µg/mL (≈ 0.297 µM).

Q: What about the MIC ([4]; read-out: MIC, broth microdilution, WHO Y) of the same compound?
A: The MIC was 0.125 µg/mL (≈ 0.297 µM).

Q: What about the MIC ([4]; read-out: MIC, broth microdilution, WHO Z) of the same compound?
A: Its MIC is 0.125 µg/mL (≈ 0.297 µM).

Q: What about the MIC ([4]; 6926, read-out: MIC, broth microdilution) of the same compound?
A: The MIC was 0.06 µg/mL (≈ 0.143 µM).
